Source: EP1988171A1, “SUBSTANCE FKI-2342 AND PROCESS FOR PRODUCTION THEREOF” (THE KITASATO INSTITUTE, priority 2006, dated 2007)
Converted amounts (≈) assume the structure as drawn. Where two headings read alike, the source gives them in different places.

Key:
Jurkat cells = assay: Inhibitory action for G2 checkpoint using Jurkat cells (cell cycle by FACS); assay type: cell-based, human; conditions: for IC50: Homo sapiens; for selectivity: specificity to the G2 phase cells, Table 1; for differences between both concentrations: IC50 (col) versus IC50 (bleo)
Description: (§1) An assay method of G2 arrest activity with treatment of anticancer agent using cancer cells is performed according to the method of Suganuma et al. (Cancer Research, […]: 5887-5891, 1999).
Jurkat cells derived from human lymphoma were cultured in RPMI 1640 medium (a medium adding an inactivated fetal bovine serum (JRH Bioscience Inc.) 50 ml and a mixture 50 ml of penicillin (10,000 units/ml) and streptomycin (10 mg/ml) (Invitrogen Inc.) in RPMI 1640 (IWAKI Co., Ltd.) 500 ml) by using a 75 cm^3 culture flask. After centrifugation of the Jurkat cells at 1, 000 rpm for 10 minutes, the supernatant was removed by using aspirator to adjust the number of cells to be 5 × 10^5 cells/ml with addition of RPMI 1640 medium. Bleomycin (Nippon Kayaku Co., Ltd.) or colchicines (Sigma Inc.) was added to be the final concentration of 40 µM or 0.5 µM, respectively, into the cell suspension. The suspension was added into each well of 96 well multiplate (Corning Corp., the U.S.), which was previously air dried after adding FKI-2342A - F substances 200 µl (1 × 10^5 cells/well) in each well, and incubated at 37°C for 20 hours.
Cells after culturing for 20 hours were centrifuged at 1,000 rpm for 10 minutes, and the supernatant was removed by using aspirator. Krishan's reagent (trisodium citrate (Wako Pure Chemical Industries, Ltd.) […], IGEPALCA-630 (Sigma Inc.) 1.5 ml, ribonuclease A (Sigma Inc.) 10 mg and propydium iodide (Sigma Inc.) 25 mg dissolved in sterilized water 50.0 ml) […] was added to each well. The well was covered with aluminum foil for light shielding and allowed to stand at room temperature for 1 hour with gently shaking by the shaker to perform DNA staining. Measurement of cell cycle was performed by measuring 10,000 cells using FACS Caliber (Becton Dickinson Inc.) to calculate ratio of cells in sub G1, G1, S, and G2/M phase by using analytical software Ce 11 Quest.
(§2) Experimental results in relation to FKI-2342A substance - F substance were obtained by using the index of the G2/M phase cell. A concentration of substance wherein the number of cells at G2 phase is reduced to 50% when the number of cells arrested at G2 phase by treatment with bleomycin is set as 100%, is calculated as IC50 (bleo), and similarly a concentration of substance wherein the number of cells at M phase is reduced to 50% is calculated as IC50 (col), and the specificity to the G2 phase cells as the selectivity is shown in Table 1.

HCT-116 cells = assay: Inhibitory action for G2 checkpoint using HCT-116 cells (cell cycle by FACS); assay type: cell-based, human; conditions: for IC50: Homo sapiens, 24 hours; for Selectivity IC50(col) /IC50(bleo): Table 2
Description: as §1
A cell suspension (15 ml) of HCT-116 cells derived from human colon cancer, adjusted to 1.5 × 10^5 cells/ml with McCoy's medium, was cultured in McCoy's 5A medium (a medium adding an inactivated fetal bovine serum (FBS) […] and a mixture 5 ml of penicillin (10,000 units/ml) and streptomycin (10 mg/ml) in McCoy's 5A (Invitrogen Inc.) 500 ml) in a 75-cm^3 culture flask (Corning Corp., the U.S.) under the atmosphere of […] at 37°C, and a subinoculation was performed after 3 days.
HCT-116 cells (500 µl) adjusted to give 1.5×10^5 cells/ml. were added into each well of a 24-well microplate (IWAKI Co., Japan) and incubated at 37°C for 24 hours. Thereafter, the medium was removed and 250 µl of 27 µM bleomycin or that of 0.5 µM colcicine prepared with McCoy's 5A medium were added in each well, and FKI-2342A substance - FKI-2342F substance dissolved in 0.5% DMSO, each 250 µl, were added (final concentration: bleomycin 13 µM, colchicine 0.25 µM, and 0.25% DMSO). The plate was incubated under […] at 37°C for 24 hours. After the incubation, the supernatant was recovered in 1.5 ml Eppendorf tube and stored on ice. Cells on the plate were detached by adding trypsin-EDTA solution (150 µl) and culturing at 37°C for 10 minutes. Immediately after the cells were detached, 300 µl of the medium were added to denature the trypsin, and were mixed with the supernatant which was stored on the ice. The mixture was centrifuged at 1,000 rpm for 10 minutes, and the supernatant was removed by using the aspirator, then Krishan's reagent (200 µl) was added thereto, and after allowing to stand for 1 hour, measurement was performed by using FACS.
Measurement of cell cycle was performed by measuring 10,000 cells using FACS Caliber (Becton Dickinson Inc.) to calculate ratio of cells in sub G1, G1, S, and G2/M phase by using analytical software cell Quest.
as §2, with “concentration of substance, in which the number” for “concentration of substance wherein the number”, “with bleomycin is' set as” for “with bleomycin is set as”, “reduced to 50%, is calculated” for “reduced to 50% is calculated”, “shown in Table'2.” for “shown in Table 1.”

[1] = cells arrested at G2 phase by bleomycin 40 µM reduced to 50%, 20 hours, Table 1, read-out: IC50 bleomycin
[2] = cells at M phase (colchicine 0.5 µM) reduced to 50%, 20 hours, Table 1, read-out: IC50 colchicine
[3] = cells arrested at G2 phase by bleomycin 13 µM reduced to 50%, read-out: IC50 bleomycin
[4] = cells at M phase (colchicine 0.25 µM) reduced to 50%, read-out: IC50 colchicine
[5] = cells arrested at G2 phase by bleomycin reduced to 50%, read-out: IC50 (bleo)
[6] = cells at M phase (colchicine) reduced to 50%, read-out: IC50 (col)

Structure (SMILES)	IC50 (Jurkat cells; [1])	IC50 (Jurkat cells; [2])	selectivity (Jurkat cells)	IC50 (HCT-116 cells; [3])	IC50 (HCT-116 cells; [4])	Selectivity IC50(col) /IC50(bleo) (HCT-116 cells)	IC50 (Jurkat cells; [5])	IC50 (Jurkat cells; [6])	differences between both concentrations (Jurkat cells)	differences in a concentration ratio (IC50 (col) / IC50 (bleo)) (HCT-116 cells)
C=C(C(=O)O)C(CCCC(=O)OC)C(=O)OC (centres unmarked) [A]	100 µg/mL (≈ 409 µM)	200 µg/mL (≈ 819 µM)	2	120 µg/mL (≈ 491 µM)	180 µg/mL (≈ 737 µM)	2	–	–	–	–
C=C(C(=O)O)C(CCCCCC(=O)OC)C(=O)O (centres unmarked) [B]	100 µg/mL (≈ 387 µM)	200 µg/mL (≈ 774 µM)	2	120 µg/mL (≈ 465 µM)	180 µg/mL (≈ 697 µM)	2	–	–	–	–
C=C(C(=O)O)C(CCCCCC(=O)OCC)C(=O)O (centres unmarked) [C]	100 µg/mL (≈ 367 µM)	200 µg/mL (≈ 734 µM)	2	120 µg/mL (≈ 441 µM)	180 µg/mL (≈ 661 µM)	2	–	–	–	–
C=C(C(=O)O)C(CCCCCC(=O)OC)C(=O)OC (centres unmarked) [D]	25 µg/mL (≈ 91.8 µM)	175 µg/mL (≈ 643 µM)	7	25 µg/mL (≈ 91.8 µM)	100 µg/mL (≈ 367 µM)	7	25 µg/mL (≈ 91.8 µM)	175 µg/mL (≈ 643 µM)	7 fold	4 fold
C=C(C(=O)O)C(CCCCCCCC(=O)OC)C(=O)O (centres unmarked) [E]	1.2 µg/mL (≈ 4.19 µM)	10 µg/mL (≈ 34.9 µM)	8	2 µg/mL (≈ 6.99 µM)	20 µg/mL (≈ 69.9 µM)	8	1.2 µg/mL (≈ 4.19 µM)	10 µg/mL (≈ 34.9 µM)	8 fold	10 fold
C=C(C(=O)O)C(CCCC(=O)OCC)C(=O)O (centres unmarked) [F]	100 µg/mL (≈ 409 µM)	200 µg/mL (≈ 819 µM)	2	100 µg/mL (≈ 409 µM)	180 µg/mL (≈ 737 µM)	2	–	–	–	–
